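Protocol summary: plate cells (96-well), add compound at 5 concentrations, incubate 48 h, interpolate endpoints linearly. At the GI50, growth is halved. The concentration for full growth arrest is given as TGI.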
Experiments:
Test in all cases: NCI tumour cell line growth inhibition, 48 h
EKVX NSCLC = tested on: EKVX NSCLC
HCT-15 colon = tested on: HCT-15 colon
MCF7 breast = tested on: MCF7 breast
MDA-MB-231 breast = tested on: MDA-MB-231 breast
MDA-MB-435 = tested on: MDA-MB-435
NCI-H226 lung = tested on: NCI-H226 lung
NCI-H522 lung = tested on: NCI-H522 lung
SK-OV-3 ovarian = tested on: SK-OV-3 ovarian
SN12C renal = tested on: SN12C renal
UO-31 renal = tested on: UO-31 renal

CO/N=C(\C)c1ccc(Nc2cc(-c3ccccc3)nc3ccc(OC)cc23)cc1
GI50 (EKVX NSCLC): 3.27 µM
TGI (EKVX NSCLC): 8.53 µM
GI50 (HCT-15 colon): 3.17 µM
TGI (HCT-15 colon): 11 µM
GI50 (MCF7 breast): 5.01 µM
TGI (MCF7 breast): 24.4 µM
GI50 (MDA-MB-231 breast): 1.23 µM
TGI (MDA-MB-231 breast): 3.24 µM
GI50 (MDA-MB-435): 1.76 µM
TGI (MDA-MB-435): 3.46 µM
GI50 (NCI-H226 lung): 2.25 µM
TGI (NCI-H226 lung): 5.63 µM
GI50 (NCI-H522 lung): 4.4 µM
TGI (NCI-H522 lung): > 100 µM
GI50 (SK-OV-3 ovarian): 15.2 µM
TGI (SK-OV-3 ovarian): 60.4 µM
GI50 (SN12C renal): 1.7 µM
TGI (SN12C renal): 4.11 µM
GI50 (UO-31 renal): 5.19 µM
TGI (UO-31 renal): > 100 µM

S=C(Nc1ccc(-c2nc3ccccc3[nH]2)cc1)Nc1ccc(-c2nc3ccccc3[nH]2)cc1
GI50 (EKVX NSCLC): > 100 µM
TGI (EKVX NSCLC): > 100 µM
GI50 (HCT-15 colon): 61.1 µM
TGI (HCT-15 colon): > 100 µM
GI50 (MCF7 breast): 28.8 µM
TGI (MCF7 breast): > 100 µM
GI50 (MDA-MB-231 breast): 41.8 µM
TGI (MDA-MB-231 breast): > 100 µM
GI50 (MDA-MB-435): > 100 µM
TGI (MDA-MB-435): > 100 µM
GI50 (NCI-H226 lung): 39.2 µM
TGI (NCI-H226 lung): > 100 µM
GI50 (NCI-H522 lung): 24.5 µM
TGI (NCI-H522 lung): 99.4 µM
GI50 (SK-OV-3 ovarian): > 100 µM
TGI (SK-OV-3 ovarian): > 100 µM
GI50 (SN12C renal): 47.7 µM
TGI (SN12C renal): > 100 µM
GI50 (UO-31 renal): 31.7 µM
TGI (UO-31 renal): > 100 µM

NCC1OC(n2cnc3c(N)ncnc32)CC1O (stereo not given)
TGI (EKVX NSCLC): > 100 µM
TGI (HCT-15 colon): > 100 µM
TGI (MCF7 breast): > 100 µM
TGI (MDA-MB-231 breast): > 100 µM
TGI (MDA-MB-435): > 100 µM
TGI (NCI-H226 lung): > 100 µM
TGI (NCI-H522 lung): > 100 µM
TGI (SK-OV-3 ovarian): > 100 µM
TGI (SN12C renal): > 100 µM
TGI (UO-31 renal): > 100 µM

C=C1CCC2C3(C)COC(c4ccccc4)OC3CCC2(C)C1/C=C/C1=CCOC1=O (stereo not given)
GI50 (EKVX NSCLC): 13.7 µM
TGI (EKVX NSCLC): > 100 µM
GI50 (HCT-15 colon): 2.41 µM
TGI (HCT-15 colon): 11.5 µM
GI50 (MCF7 breast): 1.96 µM
TGI (MCF7 breast): 7.59 µM
GI50 (MDA-MB-231 breast): 12.5 µM
TGI (MDA-MB-231 breast): 43 µM
GI50 (MDA-MB-435): 2.84 µM
TGI (MDA-MB-435): 13.8 µM
GI50 (NCI-H226 lung): 3.81 µM
TGI (NCI-H226 lung): 13.5 µM
GI50 (NCI-H522 lung): 3.65 µM
TGI (NCI-H522 lung): 14.9 µM
GI50 (SK-OV-3 ovarian): 11.5 µM
TGI (SK-OV-3 ovarian): > 100 µM
GI50 (SN12C renal): 3.82 µM
TGI (SN12C renal): 15.9 µM
GI50 (UO-31 renal): 4.88 µM
TGI (UO-31 renal): 18.2 µM

Cc1nc2ccccc2c(/C=C/c2ccc(Cl)cc2)c1C(=O)/C=C/c1ccc(C(F)(F)F)cc1
GI50 (EKVX NSCLC): 0.865 µM
TGI (EKVX NSCLC): 2.31 µM
GI50 (HCT-15 colon): 0.179 µM
TGI (HCT-15 colon): 0.599 µM
GI50 (MCF7 breast): 0.303 µM
TGI (MCF7 breast): 1.55 µM
GI50 (MDA-MB-231 breast): 0.301 µM
TGI (MDA-MB-231 breast): 0.947 µM
GI50 (MDA-MB-435): 0.243 µM
TGI (MDA-MB-435): 0.655 µM
GI50 (NCI-H226 lung): 0.306 µM
TGI (NCI-H226 lung): 0.911 µM
GI50 (NCI-H522 lung): 0.198 µM
TGI (NCI-H522 lung): 0.838 µM
GI50 (SK-OV-3 ovarian): 1.67 µM
TGI (SK-OV-3 ovarian): 3.1 µM
GI50 (SN12C renal): 1.15 µM
TGI (SN12C renal): 2.62 µM
GI50 (UO-31 renal): 0.238 µM
TGI (UO-31 renal): 0.807 µM

CCN(CC)c1ccc(C(O)C2=CC(=O)c3ccccc3C2=O)cc1 (stereo not given)
GI50 (EKVX NSCLC): 4.01 µM
TGI (EKVX NSCLC): 15.7 µM
GI50 (HCT-15 colon): 3.03 µM
TGI (HCT-15 colon): > 32.1 µM
GI50 (MCF7 breast): 1.58 µM
TGI (MCF7 breast): 6.31 µM
GI50 (MDA-MB-231 breast): 1.53 µM
TGI (MDA-MB-231 breast): 4.61 µM
GI50 (MDA-MB-435): 1.58 µM
TGI (MDA-MB-435): 2.99 µM
GI50 (NCI-H226 lung): 1.93 µM
TGI (NCI-H226 lung): 4.63 µM
GI50 (NCI-H522 lung): 1.79 µM
TGI (NCI-H522 lung): 4.19 µM
GI50 (SK-OV-3 ovarian): 2.66 µM
TGI (SK-OV-3 ovarian): 6.82 µM
GI50 (SN12C renal): 1.38 µM
TGI (SN12C renal): 4.83 µM
GI50 (UO-31 renal): 2.12 µM
TGI (UO-31 renal): 6.25 µM

O=C(NCCCO)c1cc(Cl)ccc1O
GI50 (EKVX NSCLC): 2 µM
TGI (EKVX NSCLC): 18.1 µM
GI50 (HCT-15 colon): 7.02 µM
TGI (HCT-15 colon): 21.6 µM
GI50 (MCF7 breast): 2.64 µM
TGI (MCF7 breast): 11.9 µM
GI50 (MDA-MB-231 breast): 3.64 µM
TGI (MDA-MB-231 breast): 12.8 µM
GI50 (MDA-MB-435): 2.68 µM
TGI (MDA-MB-435): 12.1 µM
GI50 (NCI-H226 lung): 3.27 µM
TGI (NCI-H226 lung): 13.4 µM
GI50 (NCI-H522 lung): 1.12 µM
TGI (NCI-H522 lung): 4.77 µM
GI50 (SK-OV-3 ovarian): 3.31 µM
TGI (SK-OV-3 ovarian): 12.3 µM
GI50 (SN12C renal): 1.89 µM
TGI (SN12C renal): 11.7 µM
GI50 (UO-31 renal): 2.98 µM
TGI (UO-31 renal): 11.3 µM

Cc1cc(N2CCOCC2)nc(N[C@@H]2CCC[C@H](Nc3ccnc4cc(Cl)ccc34)C2)n1
GI50 (EKVX NSCLC): 2.86 µM
TGI (EKVX NSCLC): 13.2 µM
GI50 (HCT-15 colon): 1.4 µM
TGI (HCT-15 colon): 3.54 µM
GI50 (MCF7 breast): 1.76 µM
TGI (MCF7 breast): 4.15 µM
GI50 (MDA-MB-231 breast): 1.7 µM
TGI (MDA-MB-231 breast): 3.58 µM
GI50 (MDA-MB-435): 1.86 µM
TGI (MDA-MB-435): 3.39 µM
GI50 (NCI-H226 lung): 4.89 µM
TGI (NCI-H226 lung): 17.1 µM
GI50 (NCI-H522 lung): 2.97 µM
TGI (NCI-H522 lung): 6.23 µM
GI50 (SK-OV-3 ovarian): 3.44 µM
TGI (SK-OV-3 ovarian): 11.9 µM
GI50 (SN12C renal): 2.48 µM
TGI (SN12C renal): 8.68 µM
GI50 (UO-31 renal): 1.29 µM
TGI (UO-31 renal): 2.63 µM

O=C(c1ccccc1)C1OC1c1ccc([N+](=O)[O-])cc1 (stereo not given)
GI50 (EKVX NSCLC): 22.8 µM
TGI (EKVX NSCLC): > 100 µM
GI50 (HCT-15 colon): 4.28 µM
TGI (HCT-15 colon): > 100 µM
GI50 (MCF7 breast): 3.16 µM
TGI (MCF7 breast): > 100 µM
GI50 (MDA-MB-231 breast): 11 µM
TGI (MDA-MB-231 breast): 33.1 µM
GI50 (MDA-MB-435): 2.95 µM
TGI (MDA-MB-435): > 100 µM
GI50 (NCI-H226 lung): 18.1 µM
TGI (NCI-H226 lung): 60.1 µM
GI50 (NCI-H522 lung): 2.13 µM
TGI (NCI-H522 lung): 7.11 µM
GI50 (SK-OV-3 ovarian): 29.1 µM
TGI (SK-OV-3 ovarian): 90.3 µM
GI50 (SN12C renal): 10.1 µM
TGI (SN12C renal): > 100 µM
GI50 (UO-31 renal): 5.94 µM
TGI (UO-31 renal): 93.2 µM

Cn1c2c(c3ccc([N+](=O)[O-])cc3c1=O)C(=O)c1ccccc1-2
GI50 (EKVX NSCLC): > 100 µM
TGI (EKVX NSCLC): > 100 µM
GI50 (HCT-15 colon): > 100 µM
TGI (HCT-15 colon): > 100 µM
GI50 (MCF7 breast): > 100 µM
TGI (MCF7 breast): > 100 µM
GI50 (MDA-MB-231 breast): > 100 µM
TGI (MDA-MB-231 breast): > 100 µM
GI50 (MDA-MB-435): 47.4 µM
TGI (MDA-MB-435): > 100 µM
GI50 (NCI-H226 lung): > 100 µM
TGI (NCI-H226 lung): > 100 µM
GI50 (NCI-H522 lung): > 100 µM
TGI (NCI-H522 lung): > 100 µM
GI50 (SK-OV-3 ovarian): > 100 µM
TGI (SK-OV-3 ovarian): > 100 µM
GI50 (SN12C renal): > 100 µM
TGI (SN12C renal): > 100 µM
GI50 (UO-31 renal): > 100 µM
TGI (UO-31 renal): > 100 µM

CN(Cc1ccccc1)c1ccc(CO)c(Cl)c1
GI50 (EKVX NSCLC): 22 µM
TGI (EKVX NSCLC): 98.8 µM
GI50 (HCT-15 colon): 25.3 µM
TGI (HCT-15 colon): > 100 µM
GI50 (MCF7 breast): 1.49 µM
TGI (MCF7 breast): 40.3 µM
GI50 (MDA-MB-231 breast): 34.1 µM
TGI (MDA-MB-231 breast): > 100 µM
GI50 (MDA-MB-435): 17.6 µM
TGI (MDA-MB-435): 59.2 µM
GI50 (NCI-H226 lung): 0.142 µM
TGI (NCI-H226 lung): 0.324 µM
GI50 (NCI-H522 lung): 29 µM
TGI (NCI-H522 lung): > 100 µM
GI50 (SK-OV-3 ovarian): 8.99 µM
TGI (SK-OV-3 ovarian): 52 µM
GI50 (SN12C renal): 31.8 µM
TGI (SN12C renal): > 100 µM
GI50 (UO-31 renal): 15 µM
TGI (UO-31 renal): > 100 µM

O=C(c1ccccc1)C(CN1CCCCC1)c1ccccc1 (stereo not given)
GI50 (EKVX NSCLC): 3.5 µM
TGI (EKVX NSCLC): 16.7 µM
GI50 (HCT-15 colon): 0.599 µM
TGI (HCT-15 colon): 2.06 µM
GI50 (MCF7 breast): 2.81 µM
TGI (MCF7 breast): 37.8 µM
GI50 (MDA-MB-231 breast): 1.82 µM
TGI (MDA-MB-231 breast): 4.37 µM
GI50 (MDA-MB-435): 1.67 µM
TGI (MDA-MB-435): 4.19 µM
GI50 (NCI-H226 lung): 3.67 µM
TGI (NCI-H226 lung): 14.8 µM
GI50 (NCI-H522 lung): 0.316 µM
TGI (NCI-H522 lung): 2.53 µM
GI50 (SK-OV-3 ovarian): 7.27 µM
TGI (SK-OV-3 ovarian): 24.8 µM
GI50 (SN12C renal): 1.79 µM
TGI (SN12C renal): 3.8 µM
GI50 (UO-31 renal): 1.58 µM
TGI (UO-31 renal): 3.07 µM

— PubChem BioAssay (NCI)
